Measurements taken from PubChem BioAssay AID256 (DTP/NCI, 2004).
Several values for one entry are separate records, joined by “and”; a condition that tells them apart may be missing. Identical values can stand only once. Inconclusive results and toxic doses are left out.

Test system: CD2F1 mice, L1210 leukemia ip, survival T/C
Assay: NCI In Vivo Anticancer Drug Screen. Data for tumor model L1210 Leukemia (intraperitoneal) in CD2F1 (CDF1) mice
Details: endpoint: mean survival time, higher = longer survival
Summary of the method: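 Each value reflects a quotient of treated over vehicle control outcomes in mice with a transplanted tumor.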

How did the T/C (dose: 0.01 mg/kg/injection, schedule: Q03HX016 (ip), vehicle: saline) turn out when `CC(=O)NC(CCC(=O)C=[N+]=N)C(=O)O` (stereo unspecified) was run?
The T/C was 97 % of control.

And the T/C (dose: 0.03 mg/kg/injection, schedule: Q03HX008 (ip), vehicle: saline)?
Its T/C is 95 % of control.

What about the T/C (dose: 0.04 mg/kg/injection, schedule: Q03HX016 (ip), vehicle: saline) of the same molecule?
The T/C was 97 % of control.

What about the T/C (dose: 0.06 mg/kg/injection, schedule: Q03HX008 (ip), vehicle: saline) of the same molecule?
Its T/C is 97 % of control.

What about the T/C (dose: 0.06 mg/kg/injection, schedule: Q03HX016 (ip), vehicle: saline) of the same molecule?
The T/C was 94 % of control.

What about the T/C (dose: 0.13 mg/kg/injection, schedule: Q01DX005 (iv), vehicle: saline) of the same molecule?
Its T/C is 98 % of control.

And the T/C (dose: 0.13 mg/kg/injection, schedule: Q01DX009 (ip), vehicle: saline)?
The T/C was 103 % of control.

And the T/C (dose: 0.13 mg/kg/injection, schedule: Q01DX009 (oral), vehicle: saline)?
The T/C was 102 % of control.

And the T/C (dose: 0.13 mg/kg/injection, schedule: Q03HX008 (ip), vehicle: saline)?
Its T/C is 104 % of control.

What about the T/C (dose: 0.13 mg/kg/injection, schedule: Q03HX016 (ip), vehicle: saline) of the same molecule?
Its T/C is 106 % of control.

And the T/C (dose: 0.13 mg/kg/injection, schedule: Q03HX024 (ip), vehicle: saline)?
The T/C was 90 % of control.

And the T/C (dose: 0.13 mg/kg/injection, schedule: Q04DX003 (ip), vehicle: saline)?
The T/C was 101 % of control.

What about the T/C (dose: 0.13 mg/kg/injection, schedule: Q08DX002 (ip), vehicle: saline) of the same molecule?
Its T/C is 94 % of control.

What about the T/C (dose: 0.25 mg/kg/injection, schedule: Q01DX001 (ip), vehicle: saline) of the same molecule?
Its T/C is 92 % of control.

And the T/C (dose: 0.25 mg/kg/injection, schedule: Q01DX001 (iv), vehicle: saline)?
The T/C was 103 % of control.

What about the T/C (dose: 0.25 mg/kg/injection, schedule: Q01DX005 (iv), vehicle: saline) of the same molecule?
The T/C was 106 % of control.

What about the T/C (dose: 0.25 mg/kg/injection, schedule: Q01DX009 (ip), vehicle: saline) of the same molecule?
The T/C was 112 % of control.

And the T/C (dose: 0.25 mg/kg/injection, schedule: Q01DX009 (oral), vehicle: saline)?
Its T/C is 113 % of control.

And the T/C (dose: 0.25 mg/kg/injection, schedule: Q03HX008 (ip), vehicle: saline)?
Its T/C is 115 % of control and 122 % of control.

What about the T/C (dose: 0.25 mg/kg/injection, schedule: Q03HX024 (ip), vehicle: saline) of the same molecule?
The T/C was 100 % of control.

What about the T/C (dose: 0.25 mg/kg/injection, schedule: Q04DX003 (ip), vehicle: saline) of the same molecule?
The T/C was 101 % of control.

What about the T/C (dose: 0.25 mg/kg/injection, schedule: Q08DX002 (ip), vehicle: saline) of the same molecule?
Its T/C is 97 % of control.

What about the T/C (dose: 0.4 mg/kg/injection, schedule: Q01DX009 (ip), vehicle: water) of the same molecule?
The T/C was 166 % of control.

What about the T/C (dose: 0.5 mg/kg/injection, schedule: Q01DX001 (ip), vehicle: saline) of the same molecule?
Its T/C is 97 % of control.

What about the T/C (dose: 0.5 mg/kg/injection, schedule: Q01DX001 (iv), vehicle: saline) of the same molecule?
Its T/C is 103 % of control.

What about the T/C (dose: 0.5 mg/kg/injection, schedule: Q01DX005 (iv), vehicle: saline) of the same molecule?
The T/C was 118 % of control.

And the T/C (dose: 0.5 mg/kg/injection, schedule: Q04DX003 (ip), vehicle: saline)?
Its T/C is 106 % of control.

And the T/C (dose: 0.5 mg/kg/injection, schedule: Q08DX002 (ip), vehicle: saline)?
Its T/C is 104 % of control.

What about the T/C (dose: 0.8 mg/kg/injection, schedule: Q01DX009 (ip), vehicle: water) of the same molecule?
The T/C was 115 % of control.

What about the T/C (dose: 1.0 mg/kg/injection, schedule: Q01DX001 (ip), vehicle: saline) of the same molecule?
The T/C was 106 % of control.

What about the T/C (dose: 1.0 mg/kg/injection, schedule: Q01DX001 (iv), vehicle: saline) of the same molecule?
Its T/C is 107 % of control.

And the T/C (dose: 1.0 mg/kg/injection, schedule: Q01DX001 (oral), vehicle: saline)?
The T/C was 110 % of control.

What about the T/C (dose: 1.0 mg/kg/injection, schedule: Q01DX009 (ip), vehicle: saline) of the same molecule?
The T/C was 119 % of control.

What about the T/C (dose: 1.0 mg/kg/injection, schedule: Q01DX009 (oral), vehicle: saline) of the same molecule?
The T/C was 115 % of control.

And the T/C (dose: 1.0 mg/kg/injection, schedule: Q03HX016 (ip), vehicle: saline)?
Its T/C is 151 % of control.

And the T/C (dose: 1.0 mg/kg/injection, schedule: Q03HX024 (ip), vehicle: saline)?
Its T/C is 181 % of control.

What about the T/C (dose: 1.0 mg/kg/injection, schedule: Q04DX003 (ip), vehicle: saline) of the same molecule?
Its T/C is 117 % of control.

And the T/C (dose: 1.0 mg/kg/injection, schedule: Q06HX012 (ip), vehicle: saline)?
Its T/C is 158 % of control.

What about the T/C (dose: 1.0 mg/kg/injection, schedule: Q08DX002 (ip), vehicle: saline) of the same molecule?
Its T/C is 111 % of control.

And the T/C (dose: 2.0 mg/kg/injection, schedule: Q01DX001 (ip), vehicle: saline)?
Its T/C is 104 % of control and 109 % of control.

And the T/C (dose: 2.0 mg/kg/injection, schedule: Q01DX001 (iv), vehicle: saline)?
The T/C was 107 % of control.

And the T/C (dose: 2.0 mg/kg/injection, schedule: Q01DX001 (oral), vehicle: saline)?
Its T/C is 120 % of control.

What about the T/C (dose: 2.0 mg/kg/injection, schedule: Q01DX005 (ip), vehicle: saline) of the same molecule?
The T/C was 109 % of control.

What about the T/C (dose: 2.0 mg/kg/injection, schedule: Q01DX005 (iv), vehicle: saline) of the same molecule?
The T/C was 120 % of control.

And the T/C (dose: 2.0 mg/kg/injection, schedule: Q03HX016 (ip), vehicle: saline)?
Its T/C is 152 % of control.

And the T/C (dose: 2.0 mg/kg/injection, schedule: Q03HX024 (ip), vehicle: saline)?
The T/C was 108 % of control.

And the T/C (dose: 2.0 mg/kg/injection, schedule: Q04DX003 (ip), vehicle: saline)?
The T/C was 121 % of control and 124 % of control.

And the T/C (dose: 2.0 mg/kg/injection, schedule: Q06HX008 (ip), vehicle: saline)?
Its T/C is 156 % of control.

What about the T/C (dose: 2.0 mg/kg/injection, schedule: Q06HX012 (ip), vehicle: saline) of the same molecule?
Its T/C is 151 % of control.

What about the T/C (dose: 2.0 mg/kg/injection, schedule: Q08DX002 (ip), vehicle: saline) of the same molecule?
The T/C was 113 % of control and 107 % of control.

And the T/C (dose: 4.0 mg/kg/injection, schedule: Q01DX001 (ip), vehicle: saline)?
The T/C was 112 % of control.

What about the T/C (dose: 4.0 mg/kg/injection, schedule: Q01DX001 (iv), vehicle: saline) of the same molecule?
Its T/C is 117 % of control.

And the T/C (dose: 4.0 mg/kg/injection, schedule: Q01DX001 (oral), vehicle: saline)?
Its T/C is 115 % of control.

And the T/C (dose: 4.0 mg/kg/injection, schedule: Q01DX005 (ip), vehicle: saline)?
Its T/C is 102 % of control.

And the T/C (dose: 4.0 mg/kg/injection, schedule: Q06HX008 (ip), vehicle: saline)?
The T/C was 152 % of control.

And the T/C (dose: 4.0 mg/kg/injection, schedule: Q06HX012 (ip), vehicle: saline)?
Its T/C is 113 % of control.

And the T/C (dose: 4.0 mg/kg/injection, schedule: Q08DX002 (ip), vehicle: saline)?
The T/C was 111 % of control.

What about the T/C (dose: 8.0 mg/kg/injection, schedule: Q01DX001 (ip), vehicle: saline) of the same molecule?
Its T/C is 116 % of control.

What about the T/C (dose: 8.0 mg/kg/injection, schedule: Q01DX001 (oral), vehicle: saline) of the same molecule?
The T/C was 116 % of control.

And the T/C (dose: 8.0 mg/kg/injection, schedule: Q08DX002 (ip), vehicle: saline)?
The T/C was 114 % of control.

What about the T/C (dose: 16.0 mg/kg/injection, schedule: Q04DX003 (ip), vehicle: saline) of the same molecule?
The T/C was 154 % of control.

Which T/C (dose: 100.0 mg/kg/injection, schedule: Q04DX003 (ip), vehicle: saline with Tween-80) does the source give for `CCN(C(=O)Nc1ccc(OC)cc1)c1ccccc1` here?
Its T/C is 98 % of control.

And the T/C (dose: 200.0 mg/kg/injection, schedule: Q04DX003 (ip), vehicle: saline with Tween-80)?
The T/C was 95 % of control.

What does the source list for `COc1ccc(-c2c(O)c3ccc(OC)cc3oc2=O)cc1`?
T/C (dose: 25.0 mg/kg/injection, schedule: Q01DX009 (ip), vehicle: saline with Tween-80): 96 % of control; T/C (dose: 50.0 mg/kg/injection, schedule: Q01DX009 (ip), vehicle: saline with Tween-80): 108 % of control; T/C (dose: 100.0 mg/kg/injection, schedule: Q01DX009 (ip), vehicle: saline with Tween-80): 108 % of control
